# Data published in patent US20080003288A1, “Responsive microgel and methods related thereto” (Supratek Pharma Inc., priority 2002, published 2008).
# Read-outs that look alike come from different tables or passages of the source.
# Assays:
# [1] = Equilibrium loading (uptake) of drugs into microgels; assay type: physicochemical; conditions: pH 7.0, PLURONIC-PAA microgels XL = 1 mol %
# Description: A microgel was suspended in Tris buffer (5 mM, pH 7.0) and 50 μL of the suspension (2 mg gel/mL buffer) was equilibrated with 3.0 mM stock solution of a drug (450 μL) for 16 h while shaking 44, 45. Shaking was performed using a KS 10 orbital shaker (BEA-Enprotech Corp., Hyde Park, Mass.) in an environmental chamber at 37° C. […] Deionized water was used as a mobile phase (flow rate, 1 mL/min, injection volume, 25 μL), and detection was carried out at 365 nm 47. […] The U values were measured in triplicate for each drug and for each temperature, pH, and gel, respectively. […] This ensured equilibrium U values. […] The beads were separated into several fractions. […] Then the beads were recovered from the suspension by using a magnet. […] The control fraction of loaded beads was subjected to the extraction without equilibration with the microgel suspension.
# [2] = Dynamic dialysis without microgels: permeability of the dialysis membrane to free solutes; assay type: physicochemical; conditions: through dialysis membrane, no microgel, from mean K and membrane thickness (eqn 3)
# Description: Drug release from microgels loaded with either DCTAF-labeled PLURONIC® or doxorubicin was studied using the dynamic dialysis technique of Gupta, P. K., et al., J. Pharm. […] A Teflon-made, thermostatted dynamic dialyzer consisted of two chambers, separated by a dialysis membrane (cellulose ester, working area A=0.35 cm^2, molecular weight cut-off 100 kDa, Spectrum Laboratories). […] Concentration of the drug in the receiver solution was monitored online by passing through a thermostatted quartz cuvette (path length 1.0 cm). […] The dialyzer was maintained at 37° C. by submersion in a water bath. The flow rate through the receiver chamber was maintained at 1.5 mL/min. […] The total volume of the receiver solution (Vr), including the chamber, cuvette, and 0.093″ tubing, was 98 mL in all experiments.
# Permeability of the dialysis membrane was determined by loading a certain amount (qf^0) of either doxorubicin or PLURONIC® solution into the feed chamber and measuring the kinetics of release. […] The membrane thickness (δ) was measured microscopically in the receiver solution upon completion of the dialysis experiment and was typically in the order of 100 μm. […]
# In the control experiments, we measured permeability of the dialysis membrane for doxorubicin and PLURONIC® L61 without loading into microgels. […]
# [3] = Transepithelial transport of doxorubicin across Caco-2 monolayers; assay type: in vitro ADME; conditions: human
# Description: (§1) The drug-containing samples for the transport experiments were prepared as follows. […] The suspension was centrifuged at 8000×g for 0.5 h and the supernatant was removed. The pellet was weighed and resuspended in fresh portion of serum-free DMEM of a known weight. Known amount of doxorubicin and Pluronic were dissolved in the suspension, which was allowed to equilibrate at 37° C. overnight, then snap-frozen and lyophilized. The powders were kept at −70° C. Before the transport experiments, a known amount of powder was reconstituted in DMEM and was allowed to equilibrate at 37° C. overnight.
# (§2) Cells were seeded at a density of (2-4)×10^4 cells/cm^2 on top of Transwell™ polycarbonate filters (pore size, 0.4 μm; diameter, 24.5 mm; growth area, 4.71 cm^2) from Costar (Cambridge, Mass.). The cells were grown for 3 weeks prior to the transport experiments and trans-epithelial electrical resistance (TEER) was measured using a Millicell-ERS device (Millipore, Bedford, Mass.) equipped with rod-shaped electrodes. The TEER data were corrected for background readings contributed by the blank filter and culture medium. […] Then the monolayers were rinsed twice by serum-free DMEM and the transport experiment commenced by replacing the medium at either the basolateral or the apical side of the monolayer with 2.5 mL of the serum-free DMEM containing doxorubicin (with or without microgels, see Table 3). Simultaneously, the medium on the other side was refreshed. The monolayers were incubated at 37° C. in 10% CO2 atmosphere. Samples of 200 μL were taken from each side intermittently, and the drug concentration was measured in the samples withdrawn from the side opposite to the side of the drug application. The volumes withdrawn were immediately replaced with equal volumes of serum-free DMEM pre-equilibrated at 37° C. Each experiment was repeated four times. […] Additionally, the concentration of doxorubicin in the medium was measured by HPLC using a Capcell Pak UG C18 (100×4.6 mm I.D., particle size 5 μm) column and a Universal Guard Cartridge System (Phenomenex, Torrance, Calif.). […] Water/acetonitrile (70/30, pH 4) was used as the mobile phase (flow rate, 1 mL/min, injection volume, 5 μL), and detection was carried out using an Argon Ion laser (488 nm, 10 mW). […] Temperature was controlled to ±0.05 C using a circulating water bath. The platinum Wilhelmy plate was washed with acetone, rinsed in Milli-Q water, and flamed until red-hot before each measurement.
# (§3) The apparent permeability of the Caco-2 monolayer (Pa, cm/s) was calculated from the linearized time course of the doxorubicin fractional transport (dI1t/dt in the fluorescence assay and dCt/dt in the HPLC assay) normalized to the effective surface area of the filter (A=4.71 cm^2) and the initial fluorescence emission intensity reading (Io) or initial doxorubicin concentration (Co) in the donor (basolateral or apical) compartment of volume V=2.5 cm^3: [formula]
# [4] = test system: Caco-2 monolayers; experiment: as above; assay type: in vitro ADME; conditions: doxorubicin 3 μM in donor, no further additive in DMEM
# Description: as §1, §2, §3
# [5] = cited from earlier work; for Charge: valency of cationic weak base, 0 = uncharged
Structure (SMILES),Uptake ± SD ([1]; 37° C.),effective diffusion coefficient (D) [2],Uptake ± SD ([1]; 20° C.),"Papp A→B at 3 μM ([3]; Caco-2, doxorubicin 3 μM in donor, no further additive in DMEM, read-out: Pa, a→b, HPLC assay)","Papp B→A at 3 µM ([3]; Caco-2, doxorubicin 3 μM in donor, no further additive in DMEM, read-out: apparent permeability, b→a, HPLC assay)","Papp B→A at 3 µM ([3]; Caco-2, doxorubicin 3 μM in donor, no further additive in DMEM, read-out: apparent permeability, b→a, fluorescence assay)","efflux ratio ([3]; Caco-2, no additives, read-out: active efflux exceeding the passive influx)","Pa, a→b, fluorescence assay [4]",Log P (n-octanol-to-water partition coefficient) [5],Charge [5]
O=C1c2c(O)ccc(O)c2C(=O)c2c(NCCNCCO)ccc(NCCNCCO)c21 [Mitoxantrone],3.70 ± 0.56 (37° C.) mmol/g,,,,,,,,,
COc1cccc2c1C(=O)c1c(O)c3c(c(O)c1C2=O)C[C@@](O)(C(=O)CO)C[C@@H]3O[C@H]1C[C@H](N)[C@H](O)[C@H](C)O1 [Doxorubicin],2.26 ± 0.37 (37° C.) mmol/g,2.4×10^−5 cm^2/s,2.97 ± 0.33 (20° C.) mmol/g,0.579 ×10⁻⁶ cm/s,2.75 ×10⁻⁶ cm/s,2.81 ×10⁻⁶ cm/s,4.6,(6.07±0.04)×10^−7 cm/s,1.85,1
CO[C@@]12[C@H](COC(N)=O)C3=C(C(=O)C(C)=C(N)C3=O)N1C[C@@H]1N[C@@H]12 [Mitomycin C],5.31 ± 1.86 (37° C.) mmol/g,,,,,,,,,3
